Results taken from patent US7919459B2, “Use of C5a receptor antagonist in the treatment of fibrosis” (Promics Pty Limited, priority 2002, dated 2011).
Several values for one entry are separate records, joined by “and”; a condition that tells them apart may be missing. Equal entries are not always repeated.

Key:
[1] = system: streptozotocin-induced diabetes in rats; conditions: streptozotocin-induced diabetes in rats (Miric G, et al., 2001); cited from earlier work
[2] = system: bleomycin-instilled male Wistar rats; assay: Hydroxyproline assay of lung, bleomycin-induced pulmonary fibrosis; type: in vivo, rat; conditions: 18 days after bleomycin instillation
Experimental: (§1) The data was analysed using the program “Sion Image”.
Hydroxyproline assay was performed by the method of Christensen et al 1 (2000). Lung tissue was excised, trimmed free of surrounding conducting airways, and homogenized in 2 mls saline. A 1 ml aliquot of lung homogenate was hydrolysed in 6N HCl (0.5 ml of homogenate and 0.5 ml of 12N HCl) at 110° C. for 12 hours; 50 μl aliquots were added to 1 ml of 14% chloramine T, 10% n-propanol, and 0.5M sodium acetate, pH 6.0. After 20 min at 22° C., 1 ml of Ehrlich's solution (1M p-dimethylaminobenzaldehyde in 70% n-propanol and 20% perchloric acid) was added and allowed to incubate at 65° C. for 15 min. Absorbance was measured at 550 nm, and the amount of hydroxyproline was determined against a standard curve generated with the use of known concentrations of reagent-grade hydroxyproline.

[3] = system: bleomycin-instilled male Wistar rats; assay: Picro Sirius Red (PR) staining for collagen in lung, bleomycin-induced pulmonary fibrosis; type: in vivo, rat; conditions: 18 days after bleomycin, individual rats, n = 3-4
Experimental: as §1

[4] = system: bleomycin-instilled male Wistar rats; assay: Bleomycin-induced pulmonary fibrosis in rats: lung and body weight, histology, collagen deposition; conditions: for Body weight / Left lung weight / Ratio (lung weight to body weight): 7-9 days after intra-tracheal bleomycin, PMX53 10 mg/kg p.o. daily; for collagen deposition in lung: acute lung inflammation
Experimental: Male Wistar rats, 6 weeks of age, were used. The rats were divided into 5 groups:
Group 1: bleomycin instillation only (n=9)
Group 2: saline instillation only (n=3)
Group 5: Untreated rats maintained in the same environment as the other groups (n=3).
Drug-treated rats were given drug for 3 days before bleomycin administration.
One intra-tracheal instillation of bleomycin at a dose of 0.5 mg/100 g (0.7 U/100 g) in 200 μl of saline was performed on Day 1, as described by Taylor et al., (2002). Rats were anaesthetized by inhalation of 5% or less halothane via a vaporizer. After a local spray of Xylocalne to prevent airway spasm, the rats were intubated and a slow injection of bleomycin or sline control was completed. The rats were then rotated gently for about 1-2 minutes to allow the solution to diffuse evenly into both lungs (Christensen et al 2000). Rats were kept in the fume cupboard until totally recovered, and then monitored for up to 18 days. Body weight, food and water intake, and respiration were monitored daily.
Respiration was elevated as follows: Score 0, normal respiration; Score 1, increased rate of breathing; and Score 2, mouth open respiration. Rats were euthanased before the end of the experimental period, if they consistently lost more than 10% bodyweight for 48 hours, had Score 2 respiration or had Score 1 respiration for 48 hours.
At the end of this period the rats were killed by exsanguination under anaesthesia, so that the lungs were clear of blood. For each rat, the left lung was immediately frozen in liquid nitrogen and stored at −20° C. for quantitative collagen analysis using hydroxyproline assay. The right lung was fully inflated and fixed with 10% formulated formalin by airway gravity fixation at a pressure of 30 cm water for 1 minute. Haematoxylin and eosin (H&E) and Picro Sirius Red (PR) staining for collagen were performed to assess collagen deposition in the lung. For quantitation of collagen stained with PR, polarized light images were converted to grey scale, and the total number of white pixels (specific for collagen) per image was determined as a percentage of the total pixel area. The procedure was applied to a total of four fields in the alveolar area and two fields in the peribronchial area and blood vessels per sample (Wang et al, 2000). The largest lobe of the right lung (from 4 lobes) in each rat was chosen. The data was analysed using the program “Sion Image”.
Data were compiled as the means±SE in the study. Tests of significance were obtained by ANOVA followed by Student-Newman-Keuls post analysis.

[5] = system: L-NAME-treated male Wistar rats; assay: Collagen distribution and inflammatory cells in heart and kidney sections (picrosirius red image analysis), L-NAME rats; type: in vivo, rat
Experimental: Collagen deposition was measured by image analysis using laser confocal microscopy of picrosirius red-stained cardiac slices, as described below. […] The stained sections were analyzed with an Image Pro plus analysis program using an Olympus BH2 microscope, with results expressed as a percentage of red area in each screen. At least 4 areas were examine in each heart.

[6] = system: L-NAME-treated male Wistar rats; assay: Isolated Langendorff heart preparation (diastolic stiffness), L-NAME rats; type: in vivo, rat
Experimental: The Langendorff isolated heart preparation was used to determine the diastolic stiffness of the left ventricles ex vivo. […] To assess myocardial stiffness in isolated Langendorff hearts, stress (σ, dyne/cm2) and tangent elastic modulus (E, dyne/cm2) for the […] equator of the left ventricle were calculated by assuming spherical geometry of the ventricle and considering the […] equatorial region as representative of the remaining myocardium: […] Myocardial diastolic stiffness is calculated as the diastolic stiffness constant (k, dimensionless), the slope of the linear relation between E and σ (Mirsky and […], 1973). To assess contractile function, maximal +dP/dt was calculated at a diastolic pressure of 5 mmHg. […] The negative log EC50 of the increase in either force of contraction in mN or rate of contraction in beats/min was determined from the concentration giving half-maximal responses in individual concentration-response curves. Renal function results were corrected for kidney wet weight measured at the end of the experiment.

[7] = system: L-NAME-treated male Wistar rats; assay: Echocardiographic analysis of cardiac function, L-NAME rats; type: in vivo, rat
Experimental: After 4 weeks of L-NAME treatment, heart function was determined in vivo by echocardiography and in vitro using the isolated Langendorff heart preparation described below. Collagen deposition was measured by image analysis using laser confocal microscopy of picrosirius red-stained cardiac slices, as described below.
Cardiac function was estimated in vivo using echocardiography, using conventional methods.

[8] = system: L-NAME-treated male Wistar rats; assay: L-NAME-induced hypertension/cardiac fibrosis in rats: intake, growth, tail-cuff blood pressure, organ weights; type: in vivo, rat
Experimental: Male Wistar rats (8 weeks old) were obtained from the Central Animal Breeding House of The University of Queensland.
This agent was administered at a dosage of 1 mg/kg/day orally for 4 days before rats were additionally treated with nitro-L-arginine methyl ester (L-NAME) for 4 weeks, i.e. a total duration of treatment of antagonist of 32 days. L-NAME administration produces hypertension and cardiac remodelling as a result of inhibition of the production of nitric oxide (NO).
L-NAME was administered at a concentration of 400 mg/l in the drinking water for 4 weeks to give a mean daily intake of 18.7±0.4 mg L-NAME (41.4±0.8 mg/kg mean body weight). Body weight and food and water intakes were measured daily.
Systolic blood pressure was measured in selected unanaesthetised rats, using a tail-cuff method.

[9] = L-NAME rats + PMX53 1 mg/kg/day orally
[10] = L-NAME rats, echocardiographic M-mode

## Cc1ccc(=O)n(-c2ccccc2)c1 [pirfenidone, 5-methyl-1-phenyl-2-(1H)-pyridone]
[1]
  cardiac fibrosis and increase in cardiac stiffness: can prevent and partially reverse

## Bleomycin [reference compound]
[2]
  hydroxyproline levels in the rat lungs: significantly increased
[3]
  PR staining: 0.01 % of the total pixel area and 0.21 % of the total pixel area and 0.78 % of the total pixel area and 1.73 % of the total pixel area
[4]
  Body weight: 226 + 8.083 g
  Left lung weight: 1.004 ± 0.04 g
  Ratio (lung weight to body weight): 4.47 ± 0.46 ×10^−3
[4]; 18 days after bleomycin instillation
  lung/body weight ratio: did not show a significant difference
[4]; 7-9 days after bleomycin
  collagen deposition in lung: significant increase

## AcF-[OPdChaWR] [PMX53]
[5]; L-NAME rats
  glomerular collagen concentrations in the kidneys: normalized
[5]; [9]
  collagen deposition restricted to % of L-NAME only, kidney interstitium: 30%
  collagen deposition restricted to % of L-NAME only, right ventricle interstitial: 44%
  collagen deposition restricted to % of L-NAME only, right ventricle perivascular: 37%
  collagen increase as % of the increase observed in rats treated with L-NAME only, left ventricular interstitial: 23%
  collagen increase as % of the increase observed in rats treated with L-NAME only, left ventricular perivascular: 43%
[5]; following L-NAME treatment
  inflammatory cell infiltration into left or right ventricles: totally prevented
[4]
  Body weight: 228 + 7.583 g
  Left lung weight: 0.974 ± 0.132 g
  Ratio (lung weight to body weight): 4.25 ± 1.07 ×10^−3
[6]; isolated heart
  developed pressure and contractility: without altering
[6]; left ventricle ex vivo
  diastolic stiffness constant: prevented
[7]; L-NAME rats
  E/A ratio (early to atrial mitral valve inflow rates): significantly normalised
  cardiac output: significantly normalised
  diastolic volume: significantly normalised
[7]; [10]
  left ventricular internal diameter in diastole: normalised
  left ventricular wall thickness in diastole: normalised
[7]; control rats
  any parameter measured by echocardiographic analysis: did not significantly alter
[8]; L-NAME + antagonist versus L-NAME only
  increase in systolic blood pressure of L-NAME rats: 16 mmHg
[8]; L-NAME rats
  left ventricular wet weight: increased
[8]; control rats
  blood pressure: non-significant increase
[8]; tail-cuff, unanaesthetised rats, day 32, L-NAME rats with or without PMX53 1 mg/kg/day orally
  systolic blood pressure: 176±3 mmHg

## CC(=O)N[C@@H](Cc1ccccc1)C(=O)N[C@H]1CCCNC(=O)[C@H](CCCNC(=N)N)NC(=O)[C@H](Cc2c[nH]c3ccccc23)NC(=O)[C@@H](CC2CCCCC2)NC(=O)[C@@H]2CCCN2C1=O [PMX53, AcF-[OPdChaWR]]
[2]
  hydroxyproline levels in the rat lungs: significantly reduced
[3]; listed as Bleo + PMX53
  PR staining: 1.43 % of the total pixel area and 0.06 % of the total pixel area and 0.01 % of the total pixel area and 0.77 % of the total pixel area
[4]; 7-9 days after bleomycin, H&E, n=4 per group
  lung histology (patchy lesions), treated versus non-treated: no significant difference
[4]; 7-9 days after bleomycin
  collagen deposition in lung: no significant difference
[4]; acute stage
  toxic lung inflammation induced by bleomycin: failure

## CC(=O)S[C@@H]1CC2=CC(=O)CC[C@]2(C)[C@H]2CC[C@@]3(C)[C@@H](CC[C@@]34CCC(=O)O4)[C@H]12 [spironolactone]
[1]
  cardiac fibrosis and increase in cardiac stiffness: can prevent and partially reverse
